In ChEMBL document CHEMBL5247589, “Natural occurrence, bioactivity, and biosynthesis of triene-ansamycins” (Eur J Med Chem, 2022):
Values after ≈ are worked out from the molar mass of the structure shown.

How the values were obtained:
PANC-1 [1] = assay: Antitumor activity against human PANC-1; assay type: functional, cell-based; settings: pooled result: one value given for 3 cell lines, strains, targets or settings
PC-3 = assay: Antitumor activity against human PC-3 cells incubated for 72 hrs by SRB calorimetric assay; assay type: functional, cell-based; settings: PC-3, 72 h
Capan-2 = assay: Antitumor activity against human Capan-2 cells incubated for 48 to 72 hrs by MTS Assay; assay type: functional, cell-based
PANC-1 [2] = assay: Antitumor activity against human PANC-1 cells incubated for 48 to 72 hrs by MTS Assay; assay type: functional, cell-based
BXPC-3 = assay: Antitumor activity against human BXPC-3 cells incubated for 48 to 72 hrs by MTS Assay; assay type: functional, cell-based
L5178Y = assay: Cytotoxicity against mouse L5178Y; assay type: toxicity, cell-based
PANC-1 [3] = assay: Antitumor activity against human PANC-1 cells assessed as cell growth inhibition incubated for 48 hrs by CCK-8 assay; assay type: functional, cell-based; settings: PANC-1, 48 h
SW1990 = assay: Antitumor activity against human SW1990 cells assessed as cell growth inhibition incubated for 48 hrs by CCK-8 assay; assay type: functional, cell-based; settings: SW1990, 48 h
HeLa [4] = assay: Antitumor activity against human HeLa cells assessed as cell growth inhibition incubated for 3 days; assay type: functional, cell-based; settings: 72 h
COLO 201 = assay: Antitumor activity against human COL0201 cells assessed as cell growth inhibition incubated for 3 days; assay type: functional, cell-based; settings: COLO 201, 72 h
C-33-A = assay: Antitumor activity against human C33A cells assessed as cell growth inhibition incubated for 3 days; assay type: functional, cell-based; settings: 72 h
MCF7 [5] = assay: Antitumor activity against human MCF7 cells assessed as cell growth inhibition incubated for 3 days; assay type: functional, cell-based; settings: MCF7, 72 h
HeLa [6] = assay: Antiproliferative activity against human HeLa cells incubated for 72 hrs by absorbance based assay; assay type: functional, cell-based
NCI-H1299 = assay: Antiproliferative activity against human H1299 cells incubated for 72 hrs by absorbance based assay; assay type: functional, cell-based; settings: NCI-H1299, 72 h
HepG2 = assay: Antitumor activity against human HepG2 incubated for 48 hrs by MTT assay; assay type: functional, cell-based; settings: HepG2, 48 h
MCF7 [7] = assay: Antitumor activity against human MCF-7 incubated for 48 hrs by MTT assay; assay type: functional, cell-based; settings: MCF7, 48 h
HeLa [8] = assay: Antitumor activity against human HeLa cells assessed as cell growth inhibition incubated for 72 hrs by MTT assay; assay type: functional, cell-based

CO[C@H]1/C=C/C=C/C=C/C[C@H](OC(=O)[C@@H](C)NC(=O)C2=CCCCC2)[C@H](C)[C@@H](O)/C(C)=C\CCc2cc(O)cc(c2)NC(=O)C1
IC50 (PANC-1 [1]): 0.035 µM

CO[C@H]1/C=C/C=C/C=C/C[C@H](OC(=O)[C@@H](C)NC(=O)CCCC(C)C)[C@H](C)[C@@H](O)/C(C)=C\CCc2cc(O)cc(c2)NC(=O)C1
IC50 (PC-3): 0.1 µM | IC50 (Capan-2): 0.1 µM | IC50 (PANC-1 [2]): 0.1 µM | IC50 (BXPC-3): 0.1 µM

CO[C@H]1/C=C/C=C/C=C/C[C@H](OC(=O)[C@@H](C)NC(=O)CC(C)C)[C@H](C)[C@@H](O)/C(C)=C\CCc2cc(O)cc(c2)NC(=O)C1
IC50 (PANC-1 [1]): 0.17 µM

CO[C@H]1/C=C/C=C/C=C/C[C@H](OC(=O)[C@@H](C)NC(=O)CCC(C)C)[C@H](C)[C@@H](O)/C(C)=C\CCc2cc(O)cc(c2)NC(=O)C1
IC50 (PANC-1 [1]): 0.17 µM

CO[C@H]1/C=C/C=C/C=C/C[C@H](OC(=O)[C@@H](C)NC(=O)C2CCCCC2)[C@H](C)[C@@H](O)/C(C)=C\CCc2cc(O[C@@H]3O[C@H](CO)[C@@H](O)[C@H](O)[C@H]3O)cc(c2O)NC(=O)C1
MIC (L5178Y): 1 µM (≈ 0.801 µg/mL)

CO[C@@H]1CC(=O)N2c3cc(O)cc4c3O[C@@H](/C=C/C=C/C[C@H](OC(=O)[C@@H](C)NC(=O)C3CCCCC3)[C@H](C)[C@@H](O)/C(C)=C\CC4)[C@H]12
IC50 (PANC-1 [3]): 8.29 µM | IC50 (SW1990): 8.29 µM

CO[C@H]1/C=C/C=C/C=C/C[C@H](OC(=O)[C@@H](C)NC(=O)C2CCCCC2)[C@H](C)[C@@H](O)/C(C)=C\CCc2cc3c(c(c2O)NC(=O)C1)SCC(=O)N3
IC50 (HeLa [4]): 0.00085 µM | IC50 (COLO 201): 0.00085 µM | IC50 (C-33-A): 0.00085 µM | IC50 (MCF7 [5]): 0.00085 µM

CO[C@@H]1CC(=O)Nc2c(O)c3cc4c2[C@H](/C=C/C=C/C[C@H](O)[C@H](C)[C@@H](OC(=O)[C@@H](C)NC(=O)C2CCCCC2)/C(C)=C\CC3)[C@H]1O4
IC50 (PANC-1 [3]): 7.79 µM | IC50 (SW1990): 7.79 µM

C/C=C(\C)C(=O)N[C@H](C)C(=O)O[C@H]1C/C=C/C=C/C=C/[C@H](OC)CC(=O)Nc2cc(O)cc(c2)CC/C=C(/C)[C@H](O)[C@H]1C
IC50 (Capan-2): ≥ 10 µM | IC50 (PANC-1 [2]): ≥ 10 µM | IC50 (BXPC-3): ≥ 10 µM

C[C@@H]1[C@@H](O)[C@H](C)[C@@H](O)CCc2cc(O)cc(c2)NC(=O)C[C@@H](O)/C=C/C=C/C=C/C[C@@H]1O
IC50 (HeLa [6]): 10 µM | IC50 (NCI-H1299): > 10 µM

CO[C@@H]1CC(=O)Nc2c(O)c3cc4c2[C@@H](/C=C/C=C/C[C@H](OC(=O)[C@@H](C)NC(=O)C2CCCCC2)[C@H](C)[C@@H](O)/C(C)=C\CC3)[C@@H]1O4
IC50 (PANC-1 [3]): 5.81 µM | IC50 (SW1990): 5.81 µM

CO[C@@H]1CC(=O)N2c3cc(O)cc4c3O[C@H](/C=C/C=C/C[C@H](O)[C@H](C)[C@@H](O)/C(C)=C\CC4)[C@H]12
IC50 (HeLa [6]): 10 µM | IC50 (NCI-H1299): > 10 µM

COc1cc2c(O)c(c1)NC(=O)C[C@@H](OC)/C=C/C=C/C=C/C[C@H](OC(=O)[C@@H](C)NC(=O)C1CCCCC1)[C@H](C)[C@@H](O)/C(C)=C\CC2
MIC (L5178Y): 0.17 µM (≈ 0.111 µg/mL)

CO[C@H]1/C=C/C=C/C=C/C[C@H](O)[C@H](C)[C@@H](O)/C(C)=C\CCc2c(O)c(cc3ncsc23)NC(=O)C1
IC50 (HeLa [6]): 10 µM | IC50 (NCI-H1299): > 10 µM

CO[C@@H]1CC(=O)N2c3cc(O)cc4c3O[C@@H](/C=C/C=C/C[C@H](O)[C@H](C)[C@@H](O)/C(C)=C\CC4)[C@@H]12
IC50 (HeLa [6]): 10 µM | IC50 (NCI-H1299): > 10 µM

CO[C@H]1/C=C/C=C/C=C/C[C@H](OC(=O)[C@@H](C)NC(=O)C2=CCCCC2)[C@H](C)[C@@H](O)/C(C)=C\CCc2cc3c(c(c2O)NC(=O)C1)SCC(=O)N3
IC50 (HeLa [4]): 0.0031 µM | IC50 (COLO 201): 0.0031 µM | IC50 (C-33-A): 0.0031 µM | IC50 (MCF7 [5]): 0.0031 µM

CO[C@@H]1CC(=O)Nc2c(O)c3cc4c2[C@H](/C=C/C=C/C[C@H](OC(=O)[C@@H](C)NC(=O)C2CCCCC2)[C@H](C)[C@@H](O)/C(C)=C\CC3)[C@H]1O4
IC50 (PANC-1 [3]): 3.99 µM | IC50 (SW1990): 3.99 µM

CO[C@H]1/C=C/C=C/C=C/C[C@H](OC(=O)[C@@H](C)NC(=O)C2=CCCC2)[C@H](C)[C@@H](O)/C(C)=C\CCc2cc(O)cc(c2)NC(=O)C1
IC50 (HepG2): 6.74 µM | IC50 (MCF7 [7]): 6.74 µM

CO[C@H]1/C=C/C=C/C=C/C[C@H](OC(=O)[C@@H](C)NC(=O)C2CCCCC2)[C@H](C)C(=O)/C(C)=C\CCc2cc(O)cc(c2O)NC(=O)C1
IC50 (HeLa [8]): > 10 µM

CO[C@H]1/C=C/C=C/C=C/C[C@H](OC(=O)[C@@H](C)NC(=O)CC(C)C)[C@H](C)[C@@H](O)/C(C)=C\CCc2c(O)c(cc3c2SCC(=O)N3)NC(=O)C1
IC50 (HeLa [4]): 0.15 µM | IC50 (COLO 201): 0.15 µM | IC50 (C-33-A): 0.15 µM | IC50 (MCF7 [5]): 0.15 µM

CO[C@H]1/C=C/C=C/C=C/C[C@H](OC(=O)[C@@H](C)NC(=O)C2CCC2)[C@H](C)[C@@H](O)/C(C)=C\CCc2cc(O)cc(c2)NC(=O)C1
IC50 (HepG2): 7.33 µM | IC50 (MCF7 [7]): 7.33 µM

CO[C@@H]1CC(=O)Nc2c(O)c3cc4c2[C@H](/C=C/C=C/C[C@H](OC(=O)[C@@H](C)NC(=O)CC(C)C)[C@H](C)[C@@H](O)/C(C)=C\CC3)[C@H]1O4
IC50 (PANC-1 [3]): > 10 µM | IC50 (SW1990): > 10 µM
